# Results reported in patent publication US20260355150A1 (Sumitomo Pharma America, Inc., priority 2022, published 2026).
# Assays:
# [1] = Rat learned helplessness model (active avoidance); details: helpless rats; for escape failures (Mean ± SEM) / inter-trial interval (ITI) crossings (Mean ± SEM): 32 mg/kg, po bid
# Experimental: In this model, rats are first exposed to inescapable foot shock to induce a helpless state which is then expressed by a subsequent failure to learn to avoid escapable foot shocks (active avoidance).
# Helplessness was induced on Day 1 in 5 of the groups by exposing animals to inescapable foot shocks delivered through an electrified stainless steel grid floor every 15 seconds for 1 h. […] Treatment continued on days 2-5 with all subjects receiving test agent or vehicle twice daily (AM and PM). Active avoidance was tested 60 min after the morning dose on Days 3, 4 and 5. All rats were tested in a 2-compartment active avoidance chamber where delivery of foot shock was signaled by a light cue. The test session began with 5 min of free exploration after which 30 stimulus-shock trials were delivered during a 15 min period. Each trial lasted 30 seconds with an initial 24 second rest period, followed by a 6 second light cue presentation with foot shock delivered during the last 3 seconds. […] Failure to avoid full delivery of the foot shock (i.e., failing to cross during 3 second shock presentation) was considered an escape failure. Crossings to the opposite compartment of the shuttle box during the 24 second rest period were recorded as inter-trial interval (ITI) crossings. Escape failures and ITI crossings were analyzed by two way repeated measures ANOVA with treatment as a main factor and test session (i.e., day) as the repeated measure.
# [2] = literature (Ardalan 2017; Cryan 2005; Koike 2014); acute treatment; cited from earlier work
# [3] = Rat forced swim test, second study (one administration 24 h prior to testing); details: 10 mg/kg, ip, positive control, of 60 observations in 5 min, p < 0.05 vs vehicle (footnote a)
# Experimental: In both procedures, rats were pre-exposed to a 15 min swim session (day 0) prior to the 5 min FST session which was conducted 24 h later (day 1).
# In the second study, adult, male Sprague-Dawley rats (190-234 g, n=10 per group) were dosed on only one occasion immediately after the pre-swim i.e., 24 h prior to testing. […] Behavior was quantified during the 5 min test session using a time sampling technique where the actual behavior observed, i.e., immobility, climbing or swimming, was recorded every 5 seconds for a total of 60 observations. Results were analyzed by one way ANOVA followed by Dunnett's post hoc comparisons.
Structure (SMILES),"escape failures, significance ([1]; 32 mg/kg po bid)",escape failures (Mean ± SEM) ([1]; Day 3),inter-trial interval (ITI) crossings (Mean ± SEM) ([1]; Day 3),inter-trial interval (ITI) crossings (Mean ± SEM) ([1]; Day 4),"escape failures (Mean ± SEM) ([1]; Day 4, p < 0.05 vs helpless/vehicle (footnote a))",inter-trial interval (ITI) crossings (Mean ± SEM) ([1]; Day 5),"escape failures (Mean ± SEM) ([1]; Day 5, p < 0.05 vs helpless/vehicle (footnote a))","antidepressant-like effects in this dosing protocol (rat FST, dosed 24 h prior to testing) [2]",Immobility frequency (Mean ± SEM) [3]
CN(C)CCCN1c2ccccc2CCc2ccccc21 [Imipramine],significant reduction in escape failures,3 ± 1,17 ± 2,12 ± 2,3 ± 2^a,15 ± 2,2 ± 1^a,–,–
CNC1(c2ccccc2Cl)CCCCC1=O (stereo not drawn) [Ketamine],–,–,–,–,–,–,–,antidepressant-like effects,22.9 ± 3.5^a
